Laboratory results published in BigSolDB 2.1.

CCc1cc(C(N)=S)ccn1
solubility (mole fraction)
Conditions | 278.15 K | 283.15 K | 288.15 K | 293.15 K | 298.15 K | 303.15 K | 308.15 K | 313.15 K | 318.15 K | 323.15 K
in 2-ethoxyethanol | 0.0252 | 0.0261 | 0.0289 | 0.0336 | 0.0383 | 0.0449 | 0.0516 | 0.0596 | 0.0677 | 0.0751
in 2-methoxyethanol | 0.0343 | 0.0387 | 0.0441 | 0.0494 | 0.055 | 0.0617 | 0.0676 | 0.075 | 0.0848 | 0.094
in DMAc | 0.169 | 0.173 | 0.179 | 0.189 | 0.199 | 0.209 | 0.221 | 0.233 | 0.245 | 0.257
in DMF | 0.104 | 0.112 | 0.123 | 0.135 | 0.148 | 0.157 | 0.167 | 0.185 | 0.199 | 0.219
in DMSO | – | – | – | 0.187 | 0.205 | 0.216 | 0.228 | 0.243 | 0.259 | 0.271
in NMP | 0.182 | 0.191 | 0.199 | 0.212 | 0.22 | 0.23 | 0.242 | 0.253 | 0.265 | 0.277
in acetone | 0.00589 | 0.00695 | 0.00799 | 0.00925 | 0.0109 | 0.0124 | 0.0148 | 0.0172 | 0.0194 | 0.0226
in ethanol | 0.00464 | 0.00566 | 0.00695 | 0.00835 | 0.00993 | 0.012 | 0.0134 | 0.0161 | 0.0192 | 0.0228
in ethyl acetate | 0.00874 | 0.0102 | 0.0122 | 0.0144 | 0.0171 | 0.0199 | 0.0231 | 0.0265 | 0.0312 | 0.0381
in isopropanol | 0.00292 | 0.00334 | 0.0042 | 0.00507 | 0.00642 | 0.00805 | 0.0096 | 0.0115 | 0.0143 | 0.018
in methanol | 0.00534 | 0.0063 | 0.0074 | 0.00919 | 0.0112 | 0.013 | 0.0159 | 0.018 | 0.0215 | 0.0256
in n-propanol | 0.00381 | 0.00464 | 0.00562 | 0.00719 | 0.00862 | 0.0103 | 0.0128 | 0.0159 | 0.0192 | 0.0231
